Experimental data reported in patent publication EP0509845A1, “(+) and (-) enantiomers of 5-aliphatic-6-(benzoxazinyl- or benzothiazinyl)-2,3,4,5-tetrahydropyridazin-3-ones” (ORTHO PHARMACEUTICAL CORPORATION, priority 1991, dated 1992).

Test system: adult mongrel dogs
Experiment: Comparative racemate and enantiomer hemodynamic testing in pentobarbital anesthetized open-chest dogs
Format: in vivo
Conditions: for In vivo inotropic ED40, i.v.: Table I summary, dose increasing contractile force by 40%; for In vivo inotropic ED40, i.v. / CF ED40 (µg/kg) with 95% F.L.: dogs; for CO Percent Change from Control: cardiac output; for CO Percent Change from Control / CF Percent Change from Control / HR Percent Change from Control / LVEDP Percent Change from Control / MAP Percent Change from Control / dP/dtmax Percent Change from Control / RAP Percent Change from Control / SV Percent Change from Control / SW Percent Change from Control / TPR Percent Change from Control: anesthetized open-chest dogs; for CF Percent Change from Control: contractile force; for CF ED40 (µg/kg) with 95% F.L.: dose causing a 40% increase in contractility above baseline, from dose-response regression lines, i.v. infusion; for HR Percent Change from Control: heart rate; for LVEDP Percent Change from Control: left ventricular end diastolic pressure; for MAP Percent Change from Control: mean blood pressure; for dP/dtmax Percent Change from Control: peak rate of rise in left ventricular pressure; for RAP Percent Change from Control: right atrial pressure; for SV Percent Change from Control: stroke volume (CO/HR x 1000); for SW Percent Change from Control: stroke work; for TPR Percent Change from Control: total peripheral resistance
Procedure: Adult mongrel dogs weighing approximately l0-l4 kg were anesthetized with sodium pentobarbital (35 mg/kg, i.p.) and artificially respired. A femoral artery was cannulated to measure mean arterial pressure (MAP) and a femoral vein was cannulated for administering compounds. A Millar microtip pressure transducer was placed in the left ventricle via the left carotid artery to measure left ventricular end diastolic pressure (EDP). pressure pulses triggered a cardiotachometer for determination of heart rate (HR) while the left ventricular pressure waveform was differentiated using a Gould differentiating amplifier to yield dP/dtmax, an index of contractility. A right thoractomy was performed at the fourth intercostal space and the pericardial sac was opened. An externally calibrated Walton-Brodie strain gauge arch was sutured to the right ventricular free wall and stretched to produce a baseline force of approximately l00g. Subsequent changes in right ventricular contractile force (CF) were measured from this baseline. A Carolina electromagnetic flow probe was placed on the ascending aorta to estimate cardiac output (CO). A flexible fluid-filled catheter was inserted into the tip of the right atrium to measure right atrial pressure (RAP). Needle electrodes were placed in the appropriate limbs to record a lead II electrocardiogram (ECG). The following formulas were used to calculate derived parameters: Stroke volume (SV) = CO/HR x l000 Stroke work (SW) = ([…]) x SV Total peripheral resistance (TPR) = (MAP-EDP)/CO
Following surgery and stabilization of hemodynamic parameters, an i.v. infusion of dopamine (l0-l5 µg/kg/min for 3 min) was administered with a Harvard infusion pump to assess responsiveness to positive inotropic stimulation. Baseline hemodynamic values were obtained immediately prior to drug infusion. Responses were continuously monitored on a recorder (Gould 2800) and data collection was facilitated by the use of a Buxco cardiovascular analyzer and data logger.
In the comparative testing a stock solution of each enantiomer (l mg/ml) was prepared fresh daily and diluted before use. Compounds were dissolved in a small volume of dimethylformamide (DMF) and diluted with saline for a final concentration of l5% DMF. Further dilutions were made with a l5% DMF solution.
In the comparative testing each compound was administered in cumulative doses to separate dogs. Data were obtained at the end of each dose. (±) Bemoradan and (+) Bemordan were infused at cumulative doses of 5, l5, 35 and 75 µg/kg, administered with a Harvard infusion pump for 5 minutes each at rates of 0.56, l.l, 2.2, and […], respectively. (-) Bemoradan was given at doses of 5, l5 and 35 µg/kg following the same protocol. The high dose of the (-) isomer was not administered as a means of conserving compound.
Hemodynamic results were expressed as the percent change from pre-drug baseline values and compared using a Dunnett's test with a criterion for significance of p < 0.05. Contractile force ED₄₀ values (i.e., the dose which increased contractile force by 40%) were calculated from dose-response regression lines.

## CC1CC(=O)NN=C1c1ccc2c(c1)OCC(=O)N2 (single isomer, unassigned; isomer 6) [(+) isomer, 6-(3,4-dihydro-3-oxo-l,4(2H)-benzoxazin-7-yl)-2,3,4,5-tetrahydro-5-methyl-pyridazin-3-one]
  In vivo inotropic ED40, i.v.: 0.0423 mg/kg
  CF ED40 (µg/kg) with 95% F.L.: 42.3 (33.5 - 56.7) µg/kg
Cumulative i.v. dose 5 µg/kg
  CO Percent Change from Control: 2.0±1.4%
  CF Percent Change from Control: 4.3±2.7%
  HR Percent Change from Control: -0.7±0.8%
  LVEDP Percent Change from Control: -3.4±3.6%
  MAP Percent Change from Control: -1.4±1.1%
  dP/dtmax Percent Change from Control: 2.8±1.0%
  RAP Percent Change from Control: -10.6±8.5%
  SV Percent Change from Control: 2.5±0.7%
  SW Percent Change from Control: 0.7±1.3%
  TPR Percent Change from Control: -3.6±0.7%
Cumulative i.v. dose 15 µg/kg
  CO Percent Change from Control: 4.8±2.8%
  CF Percent Change from Control: 11.8±3.3%
  HR Percent Change from Control: 1.2±0.8%
  LVEDP Percent Change from Control: -4.9±4.8%
  MAP Percent Change from Control: -1.8±1.7%
  dP/dtmax Percent Change from Control: 7.3±1.8%
  RAP Percent Change from Control: -5.8±9.7%
  SV Percent Change from Control: 4.0±2.4%
  SW Percent Change from Control: 1.7±3.5%
  TPR Percent Change from Control: -6.6±1.7%
Cumulative i.v. dose 35 µg/kg
  CO Percent Change from Control: 10.6±5.9%
  CF Percent Change from Control: 29.5±5.2%
  HR Percent Change from Control: 4.5±1.0%
  LVEDP Percent Change from Control: -7.4±5.7%
  MAP Percent Change from Control: -2.2±2.2%
  dP/dtmax Percent Change from Control: 18.9±3.6%
  RAP Percent Change from Control: -4.2±8.4%
  SV Percent Change from Control: 6.8±6.1%
  SW Percent Change from Control: 4.4±7.3%
  TPR Percent Change from Control: -11.3±3.7%
Cumulative i.v. dose 75 µg/kg
  CO Percent Change from Control: 13.4±8.5%
  CF Percent Change from Control: 59.5±7.2%
  HR Percent Change from Control: 10.6±3.7%
  LVEDP Percent Change from Control: -11.2±7.1%
  MAP Percent Change from Control: -3.8±2.8%
  dP/dtmax Percent Change from Control: 37.0±6.4%
  RAP Percent Change from Control: -21.7±13.3%
  SV Percent Change from Control: 6.1±9.1%
  SW Percent Change from Control: 1.9±9.9%
  TPR Percent Change from Control: -14.4±5.3%

## CC1CC(=O)NN=C1c1ccc2c(c1)OCC(=O)N2 (single isomer, unassigned; isomer 6) [(-) isomer, 6-(3,4-dihydro-3-oxo-l,4(2H)-benzoxazin-7-yl)-2,3,4,5-tetrahydro-5-methyl-pyridazin-3-one]
(-) isomer versus (+) isomer
  Potency Difference (-vs+), In vivo inotropic ED40, i.v.: 7 x
  In vivo inotropic ED40, i.v.: 0.0057 mg/kg
  CF ED40 (µg/kg) with 95% F.L.: 5.7 (2.9 - 8.3) µg/kg
Cumulative i.v. dose 5 µg/kg
  CO Percent Change from Control: 2.9±0.5%
  CF Percent Change from Control: 28.3±4.4%
  HR Percent Change from Control: -3.1±0.5%
  LVEDP Percent Change from Control: -10.6±4.4%
  MAP Percent Change from Control: -7.4±3.4%
  dP/dtmax Percent Change from Control: 11.7±5.6%
  RAP Percent Change from Control: 3.8±11.4%
  SV Percent Change from Control: 0.06±0.9%
  SW Percent Change from Control: -7.8±4.2%
  TPR Percent Change from Control: -10.2±5.2%
Cumulative i.v. dose 15 µg/kg
  CO Percent Change from Control: 0.8±1.9%
  CF Percent Change from Control: 119.9±18.8%
  HR Percent Change from Control: 10.5±1.2%
  LVEDP Percent Change from Control: -20.7±5.1%
  MAP Percent Change from Control: -12.8±4.5%
  dP/dtmax Percent Change from Control: 41.6±12.3%
  RAP Percent Change from Control: -0.9±16.4%
  SV Percent Change from Control: -8.4±1.8%
  SW Percent Change from Control: -19.8±6.3%
  TPR Percent Change from Control: -12.8±7.5%
Cumulative i.v. dose 35 µg/kg
  CO Percent Change from Control: -3.4±2.4%
  CF Percent Change from Control: 187.2±28.9%
  HR Percent Change from Control: 17.1±3.6%
  LVEDP Percent Change from Control: -25.1±8.0%
  MAP Percent Change from Control: -18.7±4.3%
  dP/dtmax Percent Change from Control: 58.0±14.5%
  RAP Percent Change from Control: -1.4±16.0%
  SV Percent Change from Control: -15.2±4.0%
  SW Percent Change from Control: -29.7±7.7%
  TPR Percent Change from Control: -14.9±5.1%
